Measured values taken from patent publication US5807983A, “GNRH antagonist betides” (The Salk Institute for Biological Studies, priority 1996, dated 1998).
Non-standard residues stand in square brackets, D forms with d. Residues, ends and D or L forms follow the SMILES beside them. dPhe(4-NH2) = Nc1ccc(C[C@@H](N)C(=O)O)cc1; dPhe(4-Cl) = N[C@H](Cc1ccc(Cl)cc1)C(=O)O; Phe(4-NH2) = Nc1ccc(C[C@H](N)C(=O)O)cc1; d2Nal = N[C@H](Cc1ccc2ccccc2c1)C(=O)O; Lys(iPr) = CC(C)NCCCC[C@H](N)C(=O)O; d3Pal = N[C@H](Cc1cccnc1)C(=O)O

Assays:
[1] = hydrophilicity by RP-HPLC retention; format: physicochemical; settings: for hydrophilicity compared to Acyline: RP-HPLC; for RP-HPLC retention (hydrophilicity): gradient 40% to 75% Buffer B over 30 minutes, Buffer A TEAP pH 7.3, Buffer B 60% CH3CN and 40% Buffer A
[2] = test system: ovulation in mature female Sprague-Dawley rats; assay: standard in vivo rat anti-ovulation test; settings: injected in bacteriostatic water at about noon on the day of proestrus
Method: (§1) The betide is assayed in vivo to determine its effectiveness to prevent ovulation in female rats. Inthis test, a specified number of mature female Sprague-Dawley rats, e.g. five to ten, each having a body weight from 225 to 250 grams, are injected with a specified microgram dosage of the betide in bacteriostatic water at about noon on the day of proestrus. Proestrus is the […]. A separate female rat group is used as a control to which the peptide is not administered. Each of the control female rats ovulates on the evening of proestrus; the number of the rats treated which ovulate is recorded.

[3] = test system: circulating LH; assay: suppression of circulating LH concentrations, duration of bioactivity; format: in vivo; settings: dose of 50 micrograms per rat; for duration of bioactivity (LH suppression): testing as in Example 1
[4] = examination of injected rats for tolerance and gelling at the point of injection; format: in vivo, rat; settings: after injection in the anti-ovulation test
Method: as §1

hydrophilicity compared to Acyline [1] | Molecule | anti-ovulatory activity: rats ovulating out of rats treated ([2]; dosage 2.5 μg) | anti-ovulatory activity: rats ovulating out of rats treated ([2]; dosage 1 μg) | other results
more hydrophilic than Acyline | CC(=O)Nc1ccc(C[C@H](NC(=O)[C@H](CO)NC(=O)C(NC(=O)[C@@H](Cc2ccc(Cl)cc2)NC(=O)[C@@H](Cc2ccc3ccccc3c2)NC(C)=O)N(C)C(=O)c2cccnc2)C(=O)N[C@H](Cc2ccc(NC(C)=O)cc2)C(=O)N[C@@H](CC(C)C)C(=O)N[C@@H](CCCCNC(C)C)C(=O)N2CCC[C@H]2C(=O)N[C@H](C)C(N)=O)cc1 (single isomer, unassigned) [Betide No. 1B first isomer, Ac-β-D-2Nal-D-Cpa-γ-(3-pyridyl)methylD/L-amidoGly-Ser-Aph(acetyl)-D-Aph(acetyl)-Leu-Lys(isopropyl)-Pro-D-Ala-NH2] | only the second isomer was bioactive | – | –
more hydrophilic than Acyline | CC(=O)Nc1ccc(C[C@H](NC(=O)[C@H](CO)NC(=O)C(NC(=O)c2ccncc2)NC(=O)[C@@H](Cc2ccc(Cl)cc2)NC(=O)[C@@H](Cc2ccc3ccccc3c2)NC(C)=O)C(=O)N[C@H](Cc2ccc(NC(C)=O)cc2)C(=O)N[C@@H](CC(C)C)C(=O)N[C@@H](CCCCNC(C)C)C(=O)N2CCC[C@H]2C(=O)N[C@H](C)C(N)=O)cc1 (single isomer, unassigned) [Betide No. 1A second isomer, Ac-β-D-2Nal-D-4Cpa-γ-(4-pyridyl)D/L-amidoGly-Ser-Aph(acetyl)-D- Aph(acetyl)-Leu-Lys(isopropyl)-Pro-D-Ala-NH2] | 2 out of 8 | – | anti-ovulatory activity: rats ovulating out of rats treated ([2]; dosage 10 μg): 0 out of 8
more hydrophilic than Acyline | CC(=O)Nc1ccc(C[C@H](NC(=O)[C@H](CO)NC(=O)C(NC(=O)c2ccncc2)NC(=O)[C@@H](Cc2ccc(Cl)cc2)NC(=O)[C@@H](Cc2ccc3ccccc3c2)NC(C)=O)C(=O)N[C@H](Cc2ccc(NC(C)=O)cc2)C(=O)N[C@@H](CC(C)C)C(=O)N[C@@H](CCCCNC(C)C)C(=O)N2CCC[C@H]2C(=O)N[C@H](C)C(N)=O)cc1 (single isomer, unassigned) [Betide No. 1A first isomer, Ac-β-D-2Nal-D-4Cpa-γ-(4-pyridyl)D/L-amidoGly-Ser-Aph(acetyl)-D- Aph(acetyl)-Leu-Lys(isopropyl)-Pro-D-Ala-NH2] | only the second isomer was bioactive | – | anti-ovulatory activity: rats ovulating out of rats treated ([2]; dosage 10 μg): 3 out of 7
more hydrophilic than Acyline | Ac-D-2Nal-(4Cl)D-Phe-D-3Pal-Ser-Aph(acetyl)-D-Aph(acetyl)-Leu-Lys(isopropyl)-Pro-D/L-Agl-NH2 [Betide No. 8A] | 0 out of 8 | – | –
more hydrophilic than Acyline | CC(=O)Nc1ccc(C[C@H](NC(=O)[C@H](CO)NC(=O)C(NC(=O)[C@@H](Cc2ccc(Cl)cc2)NC(=O)[C@@H](Cc2ccc3ccccc3c2)NC(C)=O)N(C)C(=O)c2cccnc2)C(=O)N[C@H](Cc2ccc(NC(C)=O)cc2)C(=O)N[C@@H](CC(C)C)C(=O)N[C@@H](CCCCNC(C)C)C(=O)N2CCC[C@H]2C(=O)N[C@H](C)C(N)=O)cc1 (single isomer, unassigned) [Betide No. 1B second isomer, Ac-β-D-2Nal-D-Cpa-γ-(3-pyridyl)methylD/L-amidoGly-Ser-Aph(acetyl)-D-Aph(acetyl)-Leu-Lys(isopropyl)-Pro-D-Ala-NH2] | 3 out of 8 | – | –
more hydrophilic than Acyline | Ac-D-2Nal-(4Cl)D-Phe-D-3Pal-Ser-Aph(acetyl)-D-Aph(acetyl)-Leu-D/L-Agl(acetyl-β-Ala)-Pro-D-Ala-NH2 [Betide No. 7] | 3 out of 9 | – | anti-ovulatory activity: rats ovulating out of rats treated ([2]; dosage 5 μg): 0 out of 11

The next lines start with the molecule.

Molecule | hydrophilicity compared to Acyline [1] | anti-ovulatory activity: rats ovulating out of rats treated ([2]; dosage 2.5 μg) | anti-ovulatory activity: rats ovulating out of rats treated ([2]; dosage 1 μg) | other results
Ac-2Nal-4Cl-D-Phe-D-3Pal-Ser-Aph(acetyl)-D-Aph(acetyl)-Leu-Lys(isopropyl)- Pro-D/L-Agl(methyl,For)-NH2 [Betide No. 8C] | more hydrophilic than Acyline | 0/8 | 1 out of 8 | –
CC(=O)Nc1ccc(C[C@H](NC(=O)[C@H](CO)NC(=O)C(NC(=O)c2cccnc2)NC(=O)[C@@H](Cc2ccc(Cl)cc2)NC(=O)[C@@H](Cc2ccc3ccccc3c2)NC(C)=O)C(=O)N[C@H](Cc2ccc(NC(C)=O)cc2)C(=O)N[C@@H](CC(C)C)C(=O)N[C@@H](CCCCNC(C)C)C(=O)N2CCC[C@H]2C(=O)N[C@H](C)C(N)=O)cc1 (single isomer, unassigned) [Betide No. 1, Ac-D-2Nal-(4Cl)D-Phe-γ-(3-pyridyl)amidoGly-Ser-Aph(acetyl)-D-Aph(acetyl)-Leu-Lys(isopropyl)-Pro-D-Ala-NH2] | more hydrophilic | – | – | RP-HPLC retention (hydrophilicity) [1]: 23.5 min; circulating LH concentrations relative to control levels ([3]; for 48 hours or more): less than 25 % of control levels; duration of bioactivity (LH suppression) [3]: ≥ 48 h; gelling at the point of injection [4]: no significant gelling; tolerance in treated rats [4]: very well tolerated
Ac-D-2Nal-D-4Cpa-D-3Pal-Ser-Aph(acetyl)-D-Aph(acetyl)-Leu-D/L-Agl(guanidinoacetyl)-Pro-D-Ala-NH2 [Betide No. 7B] | – | 1 out of 7 | 3 out of 4 | anti-ovulatory activity: rats ovulating out of rats treated ([2]; dosage 5 μg): 0/4
Ac-β-D-2Nal-(4Cl)D-Phe-D-3Pal-Ser-(4-acetyl-aminobenzyl,methyl)D/L-amidoGly-D-Aph(acetyl)-Leu-Lys(isopropyl)-Pro-D-D-Ala-NH2 [Betide No. 4A] | – | 0/8 | 5 out of 8 | –
CC(=O)Nc1ccc(C[C@H](NC(=O)[C@H](CO)NC(=O)[C@@H](Cc2cccnc2)NC(=O)[C@@H](Cc2ccc(Cl)cc2)NC(=O)C(NC(C)=O)NC(=O)c2ccc3ccccc3c2)C(=O)N[C@H](Cc2ccc(NC(C)=O)cc2)C(=O)N[C@@H](CC(C)C)C(=O)N[C@@H](CCCCNC(C)C)C(=O)N2CCC[C@H]2C(=O)N[C@H](C)C(N)=O)cc1 (single isomer, unassigned) [Betide No. 3, Ac-γ-(2-naphthoyl)amidoGly-4Cl-D-Phe-D-3Pal-Ser-Aph(acetyl)-D-Aph(acetyl)-Leu-Lys(isopropyl)-Pro-D-Ala-NH2] | – | 0/8 | 2 out of 7 | duration of bioactivity (LH suppression) [3]: ≥ 48 h
CC(=O)Nc1ccc(C[C@H](NC(=O)[C@H](CO)NC(=O)[C@@H](Cc2cccnc2)NC(=O)[C@@H](Cc2ccc(Cl)cc2)NC(=O)[C@@H](Cc2ccc3ccccc3c2)NC(C)=O)C(=O)N[C@H](Cc2ccc(NC(C)=O)cc2)C(=O)N[C@@H](CC(C)C)C(=O)N[C@@H](CCCCNC(C)C)C(=O)N2CCC[C@H]2C(=O)N[C@H](C)C(N)=O)cc1 [Acyline, Ac-D-2Nal-D-4Cpa-D-3Pal-Ser-Aph(Ac)-D-Aph(Ac)-Leu-ILys-Pro-D-Ala-NH2, reference compound] (Ac-[d2Nal][dPhe(4-Cl)][d3Pal]S[Phe(4-NH2)](Ac)[dPhe(4-NH2)](Ac)L[Lys(iPr)]P[dA]-NH2) | – | – | – | RP-HPLC retention (hydrophilicity) [1]: 24.1 min
